Results: patent US8791267B2, “Biaryl PDE4 inhibitors for treating inflammatory, cardiovascular and CNS disorders” (Decode Genetics EHF, priority 2007, dated 2014)
Structures can show the parent of a compound that is named as a salt.

Molecular target: PDE4 (Homo sapiens, UniProt Q08499)
Assay: In-vitro assay for PDE4 enzymes, real-time enzyme-coupled spectrophotometric assay (Table 9)
Type: biochemical
Conditions: human PDE4D; activity class, Table 9; read-out: hPDE4D

Sequence of PDE4 (Q08499 whole entry): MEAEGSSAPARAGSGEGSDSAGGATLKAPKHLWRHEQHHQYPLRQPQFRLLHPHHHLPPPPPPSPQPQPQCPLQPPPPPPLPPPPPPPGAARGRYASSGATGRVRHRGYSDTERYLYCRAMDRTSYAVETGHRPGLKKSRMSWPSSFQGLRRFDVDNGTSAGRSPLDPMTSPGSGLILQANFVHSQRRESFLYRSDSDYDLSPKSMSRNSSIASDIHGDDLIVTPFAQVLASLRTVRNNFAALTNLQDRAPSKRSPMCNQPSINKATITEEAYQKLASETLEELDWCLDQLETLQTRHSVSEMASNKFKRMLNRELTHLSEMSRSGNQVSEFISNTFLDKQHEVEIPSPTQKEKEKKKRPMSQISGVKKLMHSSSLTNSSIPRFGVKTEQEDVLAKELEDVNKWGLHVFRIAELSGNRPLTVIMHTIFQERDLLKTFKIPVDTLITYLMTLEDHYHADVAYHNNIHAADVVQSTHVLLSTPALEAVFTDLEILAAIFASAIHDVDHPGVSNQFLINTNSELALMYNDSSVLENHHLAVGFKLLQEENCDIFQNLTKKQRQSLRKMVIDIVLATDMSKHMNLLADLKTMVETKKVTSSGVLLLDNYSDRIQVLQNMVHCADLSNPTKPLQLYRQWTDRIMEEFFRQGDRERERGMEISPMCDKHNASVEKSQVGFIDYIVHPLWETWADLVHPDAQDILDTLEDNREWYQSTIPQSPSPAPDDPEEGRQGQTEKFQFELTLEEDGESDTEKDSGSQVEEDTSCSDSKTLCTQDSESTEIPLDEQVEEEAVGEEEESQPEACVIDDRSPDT

| SMILES | IC50 [µM] |
| --- | --- |
| COc1ccc(COc2cccc(NC(C)=O)c2)c(F)c1-c1cccc(Cl)c1 [P-231] | < 5 |
| COc1ccc(Cc2ccc(NC(=O)CN)cc2)c(F)c1-c1cccc(Cl)c1 [P-273] | < 5 |
| COc1ccc(COc2ccc(NC(C)=O)cc2)c(F)c1-c1cccc(Br)c1 [P-194] | < 5 |
| COc1ccc(Cc2nnc(N)o2)cc1-c1cccc(Cl)c1 [P-306, 5-(3′-Chloro-6-methoxy-biphenyl-3-ylmethyl)-[1,3,4]oxadiazol-2-ylamine] | 5 to 20 |
| COc1ccc(Nc2ccc(NC(N)=O)cc2)cc1-c1cccc(Cl)c1 [P-294, [4-(3′-Chloro-6-methoxy-biphenyl-3-ylamino)-phenyl]-urea] | < 5 |
| COc1ccc(Cc2ccc(N3CCOCC3)nc2)c(F)c1-c1cccc(Cl)c1 [P-377] | < 5 |
| COc1ccc(Cc2cccc(OCCN3CCOCC3)c2)c(F)c1-c1cccc(Cl)c1 [P-220] | < 5 |
| COc1ccc(-c2cc(Cc3ccc(F)cc3)ccc2OC)cc1C(C)=O [P-170, 1-[5′-(4-Fluoro-benzyl)-4,2′-dimethoxy-biphenyl-3-yl]-ethanone] | < 5 |
| COc1ccc(Cc2cccc(NS(C)(=O)=O)c2)cc1-c1cccc(Cl)c1 [P-271, N-[3-(3′-Chloro-6-methoxy-biphenyl-3-ylmethyl)-phenyl]-methanesulfonamide] | 5 to 20 |
| CC(=O)Nc1ccc(NCc2ccc(O)c(-c3cccc(Cl)c3)c2F)cc1 [P-203, N-{4-[(3′-Chloro-2-fluoro-6-hydroxy-biphenyl-3-ylmethyl)-amino]-phenyl}-acetamide] | < 5 |
| COc1ccc(Cc2ccc(N(C)C)cc2)cc1-c1cccc(Cl)c1 [P-241, [4-(3′-Chloro-6-methoxy-biphenyl-3-ylmethyl)-phenyl]-dimethyl-amine] | < 5 |
| COc1ccc(CN2CC[C@@H](O)C2)cc1-c1cccc(C(F)(F)F)c1 [P-078] | 5 to 20 |
| COc1ccc(Cc2ccc(NC(N)=O)cc2)c(F)c1-c1cccc(C(C)O)c1 (centres unmarked) [P-340, {4-[2-Fluoro-3′-(1-hydroxy-ethyl)-6-methoxy-biphenyl-3-ylmethyl]-phenyl}-urea] | < 5 |
| COCc1cccc(-c2cc(Cn3cncn3)ccc2OC)c1 [P-108, 1-(6-Methoxy-3′-methoxymethyl-biphenyl-3-ylmethyl)-1H-[1,2,4]triazole] | < 5 |
| COc1ccc(Cc2ccc(F)cc2)cc1-c1cccc(SC)c1 [P-151, 5-(4-Fluoro-benzyl)-2-methoxy-3′-methylsulfanyl-biphenyl] | < 5 |
| COc1ccc(N(C)c2ccc(N)cc2)cc1-c1cccc(Cl)c1 [P-288, N-(3′-Chloro-6-methoxy-biphenyl-3-yl)-N-methyl-benzene-1,4-diamine; hydrochloride] | < 5 |
| COc1ccc(Cc2ccccc2CNC=O)cc1-c1cccc([N+](=O)[O-])c1 [P-158, N-[2-(6-Methoxy-3′-nitro-biphenyl-3-ylmethyl)-benzyl]-formamide] | 5 to 20 |
| COc1ccc(COc2cccc(N)c2)c(F)c1-c1cccc(Cl)c1 [P-232] | < 5 |

Results, then the compound that gave them:

| IC50 [µM] | SMILES |
| --- | --- |
| 5 to 20 | O=CNCc1ccccc1Cc1ccc(O)c(-c2cccc([N+](=O)[O-])c2)c1 [P-501, N-[2-(6-Hydroxy-3′-nitro-biphenyl-3-ylmethyl)-benzyl]-formamide] |
| < 5 | COc1ccc(Cc2ccc(F)cc2)cc1-c1cccnc1 [P-474, 3-[5-(4-Fluoro-benzyl)-2-methoxy-phenyl]-pyridine] |
| 20 to 40 | COc1ccc(CO)nc1-c1cccc([N+](=O)[O-])c1 [P-491, [5-methoxy-6-(3-nitro-phenyl)-pyridin-2-yl]-methanol] |
| 20 to 40 | COc1ccc(Cn2cncn2)cc1-c1cccc(S(C)(=O)=O)c1 [P-495, 1-(3′-Methanesulfonyl-6-methoxy-biphenyl-3-ylmethyl)-1H-[1,2,4]triazole] |
| < 5 | NC(=O)Nc1ccc(Cc2ccc(OC(F)F)c(-c3cccc(Cl)c3)c2)cn1 [P-616, [5-(3′-Chloro-6-difluoromethoxy-biphenyl-3-ylmethyl)-pyridin-2-yl]-urea] |
| < 5 | CCNC(=O)Nc1ccc([S+]([O-])c2ccc(OC)c(-c3cccc(Cl)c3)c2)cc1 (centres unmarked) [P-449, 1-[4-(3′-Chloro-6-methoxy-biphenyl-3-sulfinyl)-phenyl]-3-ethyl urea] |
| < 5 | CCNC(=O)N1CCN(c2ccc(Cc3ccc(OC)c(-c4cccc(Cl)c4)c3F)cn2)CC1 [P-514, 4-[5-(3′-chloro-2-fluoro-6-methoxy-biphenyl-3-ylmethyl)-pyridin-2-yl]-piperazine-1-carboxylic acid ethylamide hydrochloride] |
| 20 to 40 | COc1ccc(Cn2cncn2)cc1-c1ccc2[nH]ccc2c1 [P-486, 5-(2-Methoxy-5-[1,2,4]triazol-1-ylmethyl-phenyl)-1H-indole] |
| < 5 | COc1ccc(Cc2ccc(N3CCC[C@H]3C(C)(C)O)nc2)c(F)c1-c1cccc(Cl)c1 [P-581, 2-{(S)-1-[5-(3′-chloro-2-fluoro-6-methoxy-biphenyl-3-ylmethyl)-pyridin-2-yl]-pyrrolidin-2-yl}-propan-2-ol] |
| < 5 | COc1ccc(Cc2ccc(C(C)N3CCC3)nc2)cc1-c1cccc(Cl)c1 (centres unmarked) [P-609, 2-(1-azetidin-1-yl-ethyl)-5-(3′-chloro-6-methoxy-biphenyl-3-ylmethyl)-pyridine] |
| < 5 | COc1ccc(Cc2ccc(N3[C@@H](C)CC[C@@H]3C)nc2)c(F)c1-c1cccc(Cl)c1 [P-577, 5-(3′-Chloro-2-fluoro-6-methoxy-biphenyl-3-ylmethyl)-2-((2S,5S)-2,5-dimethyl-pyrrolidin-1-yl)-pyridine] |
| 5 to 20 | NC(=O)Nc1ccc(Cc2ccc(OC3CNC3)c(-c3cccc(Cl)c3)c2)cc1 [P-554, {4-[6-(Azetidin-3-yloxy)-3′-chloro-biphenyl-3-ylmethyl]-phenyl}-urea] |
| < 5 | COc1ccc(Cc2ccc(C(C)NC(N)=O)nc2)c(F)c1-c1cccc(Cl)c1 (centres unmarked) [P-613, {1-[5-(3′-Chloro-2-fluoro-6-methoxy-biphenyl-3-ylmethyl)-pyridin-2-yl]-ethyl}-urea hydrochloride] |
| < 5 | CCOC(=O)N1CCN(c2ccc(Cc3ccc(OC)c(-c4cccc(Cl)c4)c3F)cn2)CC1 [P-431] |
| < 5 | COc1ccc(Cn2cc(-c3ccncc3)cn2)c(F)c1-c1cccc(Cl)c1 [P-528, 4-[1-(3′-Chloro-2-fluoro-6-methoxy-biphenyl-3-ylmethyl)-1H-pyrazol-4-yl]-pyridine] |
| 5 to 20 | COc1ccc(Cc2ccc(F)cc2)cc1-n1cc(-c2ccncc2)cn1 [P-389, 4-{1-[5-(4-Fluoro-benzyl)-2-methoxy-phenyl]-1H-pyrazol-4-yl}-pyridine] |
| 20 to 40 | COc1ccc(CN2CCC[C@@H]2CO)cc1-c1cccc([N+](=O)[O-])c1 [P-493, [(R)-1-(6-Methoxy-3′-nitro-biphenyl-3-ylmethyl)-pyrrolidin-2-yl]-methanol] |
| < 5 | COc1ccc(COc2ccnc(N3CCCC3)c2)c(F)c1-c1cccc(Cl)c1 [P-608] |
| < 5 | NC(=O)Nc1ccc(Cc2ccc(OCC3CCCO3)c(-c3cccc(Cl)c3)c2)cc1 (centres unmarked) [P-543, {4-[3′-Chloro-6-(tetrahydro-furan-2-ylmethoxy)-biphenyl-3-ylmethyl]-phenyl}-urea] |
| < 5 | COc1ccc(Cc2ccc(N(C)CC(N)=O)nc2)c(F)c1-c1cccc(Cl)c1 [P-622, 2-{[5-(3′-Chloro-2-fluoro-6-methoxy-biphenyl-3-ylmethyl)-pyridin-2-yl]-methyl-amino}-acetamide] |
